Source: patent publication US20060177888A1, “Method for evaluating antioxidation capability of organism sample” (Chugai Seiyaku Kabushiki Kaisha, priority 2003, published 2006)

Assays:
[1] = reported in literature (Gotoh 1992; Noguchi 1997); cited from earlier work
[2] = tested on: cholesterol esters contained in plasma samples; experiment: Amounts of CEOOHs and CEOHs produced in AAPH-initiated oxidation of plasma samples with added antioxidant; type: biochemical; settings: antioxidant added to human plasma at various concentrations five minutes before AAPH (10 mM), 37° C., 8 hours; endogenous α-tocopherol present; FIG. 4
Procedure: Assay reproducibility was tested for oxidation products of cholesterol esters contained in plasma samples obtained from a normal human subject. In this test, the cholesterol esters were regarded as oxidizable substrates.
Blood was collected in heparin from one normal human subject who gave informed consent to prepare a plasma pool.
1.1 mL portions of this plasma sample were put into nine test tubes and were frozen-stored at −80° C.
Three test tubes A, B and C containing the frozen plasma were warmed to 37° C. for 5 minutes to thaw the frozen plasma. After thawing, the test tubes were kept in ice.
10 μL of an aqueous solution of AAPH (available from Wako Pure Chemical Industries, Ltd.; Lot No. DWF 1183) was added to 300 μL of plasma removed from each test tube at an AAPH concentration of 10 mM. Then, they were warmed to 37° C. to initiate an oxidation reaction.
After maintaining at 37° C. for 8 hours, the 3 vessels each containing the reaction solution were immersed in ice to stop the reaction. 1 mL of a methanol containing 0.02% acetic acid and 5 mL of hexane were added to 100 μL of each reaction solution to extract lipids. 4 mL of the hexane extract removed from each reaction solution was concentrated on Speed Vac (AES1010 available from Thermo Savant), and each concentrate was dissolved in 200 μL of isopropyl alcohol. […]

Compound	rate of the reaction with linoleic acid peroxy radicals, expressed as ratio to the rate of the reaction of α-tocopherol [1]	amounts of CEOOHs and CEOHs produced with the increase of the concentration of the antioxidant [2]
CCCCCC1(CCCCC)Cc2c(cc(C(C)(C)C)c(O)c2C(C)(C)C)O1 [BO-653, 4,6-di-t-butyl-5-hydroxy-2,2-di-n-pentyl-2,3-dihydrobenzofuran]	1/2	significantly decrease
Cc1c(C)c2c(c(C)c1O)CC[C@@](C)(CCC[C@H](C)CCC[C@H](C)CCCC(C)C)O2 [α-tocopherol]	–	significantly increase
